Measurements as given in paper PMC7180572, “5-Alkylamino-N-phenylpyrazine-2-carboxamides: Design, Preparation, and Antimycobacterial Evaluation” (Molecules, 2020).
Converted amounts (≈) assume the structure as drawn. Like-named read-outs stand apart in the source and are kept apart here.

Key:
[1] = test system: Mycobacterium smegmatis DSM 43465 (ATCC 607); assay: Microdilution broth, modified Microplate Alamar Blue Assay, whole cell growth inhibition; assay type: cell-based; settings: Mycolicibacterium smegmatis, read-out: MIC Mycobacterium smegmatis
[2] = test system: Staphylococcus epidermidis ATCC 12228, CCM 4418; assay: Antibacterial microdilution broth method (EUCAST); assay type: cell-based; settings: read-out: MIC SE
[3] = test system: Mycobacterium aurum DSM 43999 (ATCC 23366); assay: Microdilution broth, modified Microplate Alamar Blue Assay, whole cell growth inhibition; assay type: cell-based; settings: Mycolicibacterium aurum, read-out: MIC Mycobacterium aurum
[4] = test system: Enterococcus faecalis ATCC 29212, CCM 4224; assay: Antibacterial microdilution broth method (EUCAST); assay type: cell-based; settings: read-out: MIC EF
[5] = test system: Staphylococcus aureus spp.aureus ATCC 29213, CCM 4223; assay: Antibacterial microdilution broth method (EUCAST); assay type: cell-based; settings: read-out: MIC SA
[6] = test system: Pseudomonas aeruginosa ATCC 27853, CCM 3955; assay: Antibacterial microdilution broth method (EUCAST); assay type: cell-based; settings: read-out: MIC PA
[7] = test system: Escherichia coli ATCC 25922, CCM 3954; assay: Antibacterial microdilution broth method (EUCAST); assay type: cell-based; settings: read-out: MIC EC
[8] = test system: Mycobacterium tuberculosis H37Ra ITM-M006710 (ATCC 9431); assay: Microdilution broth, modified Microplate Alamar Blue Assay, whole cell growth inhibition; assay type: cell-based; settings: Mycobacterium tuberculosis; in vitro, Middlebrook 7H9 broth, resazurin; read-out: MIC Mtb H37Ra
[9] = test system: Staphylococcus aureus methicillin resistant ATCC 43300, CCM 4750; assay: microbe, parasite or virus in culture; assay type: cell-based; settings: ATCC 43300 / CCM 4750 / MRSA, read-out: MIC MRSA
[10] = test system: HepG2 cells; assay: HepG2 cytotoxicity, CellTiter 96 (MTS) assay; assay type: cell-based, human; settings: for IC50: Homo sapiens, HepG2, 24 h, read-out: HepG2 IC50; for SI, selectivity index: IC50 (HepG2)/MIC against Mtb H37Ra (in µM)
[11] = test system: Klebsiella pneumoniae ATCC 10031, CCM 4415; assay: Antibacterial microdilution broth method (EUCAST)
[12] = test system: Candida krusei ATCC 6258, CCM 8271; assay: Antifungal microdilution broth method (EUCAST); assay type: cell-based; settings: Pichia kudriavzevii, read-out: MIC CK
[13] = test system: Aspergillus flavus CCM 8363; assay: Antifungal microdilution broth method (EUCAST); assay type: cell-based; settings: read-out: MIC AFla
[14] = test system: Candida albicans ATCC 24433, CCM 8320; assay: Antifungal microdilution broth method (EUCAST); assay type: cell-based; settings: read-out: MIC CA
[15] = test system: Absidia corymbifera CCM 8077 (Lichtheimia corymbifera); assay: Antifungal microdilution broth method (EUCAST); assay type: cell-based; settings: read-out: MIC AC
[16] = test system: Trichophyton interdigitale ATCC 9533, CCM 8377; assay: Antifungal microdilution broth method (EUCAST); assay type: cell-based; settings: read-out: MIC TI
[17] = test system: Aspergillus fumigatus ATCC 204305; assay: Antifungal microdilution broth method (EUCAST); assay type: cell-based; settings: read-out: MIC AF
[18] = test system: Acinetobacter baumanii ATCC 19606, DSM 30007; assay: Antibacterial microdilution broth method (EUCAST); assay type: cell-based; settings: Acinetobacter baumannii
[19] = test system: Candida parapsilosis ATCC 22019, CCM 8260; assay: Antifungal microdilution broth method (EUCAST); assay type: cell-based; settings: Lodderomyces parapsilosis, read-out: MIC CP
[20] = test system: Candida tropicalis ATCC 750, CCM 8264; assay: Antifungal microdilution broth method (EUCAST); assay type: cell-based; settings: read-out: MIC CT

With `CCCCCCNc1cnc(C(=O)Nc2ccc(O)cc2)cn1` [Compound 3d, 5-(Hexylamino)pyrazine-N-(4-hydroxyphenyl)-2-carboxamide] the MIC [1] was 250 µg/mL (≈ 795 µM), the MIC ([2]; 24 h) was > 500 µM and the MIC ([2]; 48 h) was > 500 µM. For the same compound, the MIC [3] was ≥ 500 µg/mL, the MIC ([4]; 24 h) was > 500 µM and the MIC ([4]; 48 h) was > 500 µM. The MIC ([5]; 24 h) was > 500 µM, the MIC ([5]; 48 h) was > 500 µM and the MIC ([6]; 72 h) was > 500 µM. For the same compound, the MIC ([6]; 120 h) was > 500 µM, the MIC ([7]; 24 h) was > 500 µM and the MIC ([7]; 48 h) was > 500 µM. For the same compound, the MIC [8] was 3.91 µg/mL (≈ 12.4 µM), the melting point was 157.7 to 161.5 °C and the MIC ([9]; 24 h) was > 500 µM. For the same compound, the MIC ([9]; 48 h) was > 500 µM, the IC50 [10] was 58.6 µM and the “SI, selectivity index” value [10] was 4.71. For the same compound, the “MIC KP” value ([11]; 24h) was > 500 µM, the “MIC KP” value ([11]; 48h) was > 500 µM and the MIC ([12]; 24 h) was > 500 µM. For the same compound, the MIC ([12]; 48 h) was > 500 µM, the MIC ([13]; CCM8363, 24 h) was > 500 µM and the MIC ([13]; CCM8363, 48 h) was > 500 µM. For the same compound, the MIC ([14]; 24 h) was > 500 µM, the MIC ([14]; 48 h) was > 500 µM and the MIC ([15]; CCM8077, 24 h) was > 500 µM. For the same compound, the MIC ([15]; CCM8077, 48 h) was > 500 µM, the MIC ([16]; 72 h) was > 500 µM and the MIC ([16]; 120 h) was > 500 µM. The MIC ([17]; ATCC204305, 24 h) was > 500 µM, the MIC ([17]; ATCC204305, 48 h) was > 500 µM and the MIC ([18]; 24h) was > 500 µM. For the same compound, the MIC ([18]; 48h) was > 500 µM, the MIC ([19]; 24 h) was > 500 µM and the MIC ([19]; 48 h) was > 500 µM. For the same compound, the MIC ([20]; 24 h) was > 500 µM and the MIC ([20]; 48 h) was > 500 µM.
With `CCCCCCCNc1cnc(C(=O)Nc2ccc(O)cc2)cn1` [Compound 3e] the MIC [1] was 31.2 µg/mL (≈ 95.2 µM), the MIC ([2]; 24 h) was > 500 µM and the MIC ([2]; 48 h) was > 500 µM. The MIC [3] was ≥ 500 µg/mL, the MIC ([4]; 24 h) was > 500 µM and the MIC ([4]; 48 h) was > 500 µM. The MIC ([5]; 24 h) was > 500 µM, the MIC ([5]; 48 h) was > 500 µM and the MIC ([6]; 72 h) was > 500 µM. For the same compound, the MIC ([6]; 120 h) was > 500 µM, the MIC ([7]; 24 h) was > 500 µM and the MIC ([7]; 48 h) was > 500 µM. For the same compound, the MIC [8] was 3.91 µg/mL (≈ 11.9 µM), the melting point was 151.4 to 155.4 °C and the MIC ([9]; 24 h) was > 500 µM. The MIC ([9]; 48 h) was > 500 µM, the IC50 [10] was 44.8 µM and the “SI, selectivity index” value [10] was 3.76. The “MIC KP” value ([11]; 24h) was > 500 µM, the “MIC KP” value ([11]; 48h) was > 500 µM and the MIC ([12]; 24 h) was > 250 µM. The MIC ([12]; 48 h) was > 250 µM, the MIC ([13]; CCM8363, 24 h) was > 250 µM and the MIC ([13]; CCM8363, 48 h) was > 250 µM. The MIC ([14]; 24 h) was > 250 µM, the MIC ([14]; 48 h) was > 250 µM and the MIC ([15]; CCM8077, 24 h) was > 250 µM. For the same compound, the MIC ([15]; CCM8077, 48 h) was > 250 µM, the MIC ([16]; 72 h) was > 250 µM and the MIC ([16]; 120 h) was > 250 µM. The MIC ([17]; ATCC204305, 24 h) was > 250 µM, the MIC ([17]; ATCC204305, 48 h) was > 250 µM and the MIC ([18]; 24h) was > 500 µM. The MIC ([18]; 48h) was > 500 µM, the MIC ([19]; 24 h) was > 250 µM and the MIC ([19]; 48 h) was > 250 µM. The MIC ([20]; 24 h) was > 250 µM and the MIC ([20]; 48 h) was > 250 µM.
For `CCCCNc1cnc(C(=O)Nc2ccc(C)cc2)cn1` [Compound 4b, 5-(Butylamino)-N-(p-tolyl)pyrazine-2-carboxamide], the MIC [1] was ≥ 250 µg/mL, the MIC ([2]; 24 h) was > 125 µM and the MIC ([2]; 48 h) was > 125 µM. For the same compound, the MIC [3] was ≥ 250 µg/mL, the MIC ([4]; 24 h) was > 125 µM and the MIC ([4]; 48 h) was > 125 µM. For the same compound, the MIC ([5]; 24 h) was > 125 µM, the MIC ([5]; 48 h) was > 125 µM and the MIC ([6]; 72 h) was > 125 µM. The MIC ([6]; 120 h) was > 125 µM, the MIC ([7]; 24 h) was > 125 µM and the MIC ([7]; 48 h) was > 125 µM. For the same compound, the MIC [8] was ≥ 250 µg/mL, the melting point was 162.6 to 163.6 °C and the MIC ([9]; 24 h) was > 125 µM. The MIC ([9]; 48 h) was > 125 µM, the IC50 [10] was > 50 µM and the “MIC KP” value ([11]; 24h) was > 125 µM. For the same compound, the “MIC KP” value ([11]; 48h) was > 125 µM, the MIC ([12]; 24 h) was > 125 µM and the MIC ([12]; 48 h) was > 125 µM. The MIC ([13]; CCM8363, 24 h) was > 125 µM, the MIC ([13]; CCM8363, 48 h) was > 125 µM and the MIC ([14]; 24 h) was > 125 µM. For the same compound, the MIC ([14]; 48 h) was > 125 µM, the MIC ([15]; CCM8077, 24 h) was > 125 µM and the MIC ([15]; CCM8077, 48 h) was > 125 µM. For the same compound, the MIC ([16]; 72 h) was > 125 µM, the MIC ([16]; 120 h) was > 125 µM and the MIC ([17]; ATCC204305, 24 h) was > 125 µM. The MIC ([17]; ATCC204305, 48 h) was > 125 µM, the MIC ([18]; 24h) was > 125 µM and the MIC ([18]; 48h) was > 125 µM. For the same compound, the MIC ([19]; 24 h) was > 125 µM, the MIC ([19]; 48 h) was > 125 µM and the MIC ([20]; 24 h) was > 125 µM. The MIC ([20]; 48 h) was > 125 µM.
